From patent publication US10494384B2, “Urea peptoid boric acid compound, pharmaceutical composition thereof, preparation method therefor, and uses thereof” (Peking University, priority 2015, dated 2019)

Columns and labels:
[1] = test system: Hela, human cervical carcinoma; test: preliminary anti-tumor screening in vitro, MTT method; assay type: cell-based; conditions: read-out: inhibition rates (%) Hela
Experimental: (§1) The test methods used in this test example are routine methods for anti-tumor activities test in pharmaceutical area, for example, referring to the following reference: (J. Immunol Method, 1983, 65, 55).
(§2) Test models: A: MTT method (Hela, human cervical carcinoma); B: SRB method (BGC-823, […]); C: SRB method (MCF-7, breast cancer); D: SRB method (A549, human lung cancer); E: SRB method (PC3M1E8, prostate cancer).
(§3) Inhibition rates of the compounds were measured under concentrations of 0.1 μM, 1 μM or 10 μM.

MCF-7, breast cancer = test: preliminary anti-tumor screening in vitro, SRB method; assay type: cell-based; conditions: Homo sapiens, read-out: inhibition rates (%) MCF-7; for inhibition at 0.1 µM: MCF7, 0.1 μM; for inhibition at 1 µM: MCF7, 1 μM; for inhibition at 10 µM: MCF7, 10 μM
Experimental: as §1, §2, §3

A549, human lung cancer = test: as above; assay type: cell-based; conditions: read-out: inhibition rates (%) A549
Experimental: as §1, §2, §3

BGC-823, liver cancer = test: as above; assay type: cell-based; conditions: Homo sapiens, read-out: inhibition rates (%) BGC-823
Experimental: as §1, §2, §3

[2] = target: T1, 20S proteasome extracted from rat liver (T-L) (Rattus norvegicus, UniProt P40112+Q9JHW0); test: inhibition of 20S proteasome, T-L activity (fluorescent peptide); assay type: biochemical; conditions: rat liver 20S proteasome, 37° C., 1 h, read-out: inhibition rates (%) T-L
T1 construct: 20S proteasome extracted from rat liver; from tissue; host or cells: rat liver
Experimental: (§4) 1 μg of 20S proteasome extracted from rat liver was incubated with a 100 μL solution containing various concentrations of the present compounds, 50 μM fluorescent peptides and 20 mM Tris-HCl at 37° C. for 1 h, respectively. […] 0.1% DMSO was used as a solvent control. Compared with the fluorescence of solvent control, an inhibition rate or IC50 value was calculated.

[3] = target: T2, 20S proteasome extracted from rat liver (CT-L) (Rattus norvegicus, UniProt P18421+P28075); test: inhibition of 20S proteasome, CT-L activity (fluorescent peptide); assay type: biochemical; conditions: rat liver 20S proteasome, 37° C., 1 h, read-out: inhibition rates (%) CT-L
T2 construct: 20S proteasome extracted from rat liver; from tissue; host or cells: rat liver
Experimental: as §4

[4] = target: T3, 20S proteasome extracted from rat liver (PGPH) (Rattus norvegicus, UniProt P28073+Q9JHW0); test: inhibition of 20S proteasome, PGPH activity (fluorescent peptide); assay type: biochemical; conditions: rat liver 20S proteasome, 37° C., 1 h, read-out: inhibition rates (%) PGPH
T3 construct: 20S proteasome extracted from rat liver; from tissue; host or cells: rat liver
Experimental: as §4

## CC(C)C[C@H](NC(=O)CNC(=O)Nc1cc(Cl)ccc1Cl)B(O)O [Example 22, N-glycyl-L-leucine borate-N′-(2,5-dichloro-phenylamine)-urea]
[1]
  inhibition at 0.1 µM: 8.66%
  inhibition at 1 µM: 19.7%
  inhibition at 10 µM: 43.4%
MCF-7, breast cancer
  inhibition at 0.1 µM: 7.17%
  inhibition at 1 µM: 12.7%
  inhibition at 10 µM: 42.2%
A549, human lung cancer
  inhibition at 0.1 µM: 1.88%
  inhibition at 1 µM: 28.3%
  inhibition at 10 µM: 65.6%
BGC-823, liver cancer
  inhibition at 0.1 µM: 2.04%
  inhibition at 1 µM: 9.01%
  inhibition at 10 µM: 44.5%
[2]
  inhibition at 0.2 µM: -3.95%
  inhibition at 2 µM: 28.3%
  inhibition at 20 µM: 53.1%
[3]
  inhibition at 0.2 µM: 62%
  inhibition at 2 µM: 89.7%
  inhibition at 20 µM: 93.3%
[4]
  inhibition at 0.2 µM: 10.1%
  inhibition at 2 µM: 7.17%
  inhibition at 20 µM: 5.29%

## CC(C)C[C@H](NC(=O)N[C@@H](Cc1ccccc1)C(=O)N[C@@H](CC(C)C)C(=O)Nc1cnccn1)B1OC(C)(C)C(C)(C)O1 [Example 13, N-L-leucine borate pinacol ester-N′-(pyrazin-2-ylcarbamoyl)-L-leucyl-L-phenylalanine-urea]
[1]
  inhibition at 0.1 µM: 7.02%
  inhibition at 1 µM: 20.2%
  inhibition at 10 µM: 37.7%
MCF-7, breast cancer
  inhibition at 0.1 µM: -3.69%
  inhibition at 1 µM: 8.39%
  inhibition at 10 µM: 20%
A549, human lung cancer
  inhibition at 0.1 µM: -9.11%
  inhibition at 1 µM: 23.5%
  inhibition at 10 µM: 50.5%
BGC-823, liver cancer
  inhibition at 0.1 µM: 3.66%
  inhibition at 1 µM: 17.8%
  inhibition at 10 µM: 40%
[2]
  inhibition at 0.2 µM: -3.11%
  inhibition at 2 µM: 13.8%
  inhibition at 20 µM: 49.4%
[3]
  inhibition at 0.2 µM: 45.4%
  inhibition at 2 µM: 91.3%
  inhibition at 20 µM: 95.4%
[4]
  inhibition at 0.2 µM: 5.28%
  inhibition at 2 µM: 53.4%
  inhibition at 20 µM: 96.8%

## CC(C)C[C@H](NC(=O)N[C@H](Cc1ccccc1)C(=O)Nc1cnccn1)B(O)O [Example 10, N-L-leucine borate-N′-(pyrazin-2-ylcarbamoyl)-D-phenylalanine-urea]
[1]
  inhibition at 0.1 µM: 11.8%
  inhibition at 1 µM: 14.8%
  inhibition at 10 µM: 27%
MCF-7, breast cancer
  inhibition at 0.1 µM: 8.1%
  inhibition at 1 µM: 12.7%
  inhibition at 10 µM: 16%
A549, human lung cancer
  inhibition at 0.1 µM: 3.45%
  inhibition at 1 µM: 14.6%
  inhibition at 10 µM: 25%
BGC-823, liver cancer
  inhibition at 0.1 µM: 4.44%
  inhibition at 1 µM: 7.38%
  inhibition at 10 µM: 16.4%
[2]
  inhibition at 0.2 µM: -12.3%
  inhibition at 2 µM: -5.93%
  inhibition at 20 µM: 17.4%
[3]
  inhibition at 0.2 µM: -4.19%
  inhibition at 2 µM: 47.8%
  inhibition at 20 µM: 89%
[4]
  inhibition at 0.2 µM: 19%
  inhibition at 2 µM: 79.8%
  inhibition at 20 µM: 96%

## CC(C)C[C@H](NC(=O)N[C@@H](Cc1ccccc1)C(=O)Nc1cccc(OCc2ccccc2)c1)B(O)O [Example 4, N-L-leucine borate-N′-(3-benzyloxy-phenylcarbamoyl)-L-phenylalanine-urea]
[1]
  inhibition at 0.1 µM: 9.59%
  inhibition at 1 µM: 11.3%
  inhibition at 10 µM: 25.4%
MCF-7, breast cancer
  inhibition at 0.1 µM: 6.46%
  inhibition at 1 µM: 9.07%
  inhibition at 10 µM: 9.93%
A549, human lung cancer
  inhibition at 0.1 µM: 6.4%
  inhibition at 1 µM: 16.2%
  inhibition at 10 µM: 31.1%
BGC-823, liver cancer
  inhibition at 0.1 µM: 6.67%
  inhibition at 1 µM: 4.64%
  inhibition at 10 µM: 13.1%
[2]
  inhibition at 0.2 µM: 6.92%
  inhibition at 2 µM: 4.38%
  inhibition at 20 µM: 36.2%
[3]
  inhibition at 0.2 µM: -14.2%
  inhibition at 2 µM: 10.4%
  inhibition at 20 µM: 77.7%
[4]
  inhibition at 0.2 µM: 2.03%
  inhibition at 2 µM: 2.19%
  inhibition at 20 µM: 62.7%

## CC(C)C[C@H](NC(=O)N[C@@H](Cc1ccccc1)C(=O)N[C@@H](CC(C)C)C(=O)Nc1cnccn1)B(O)O [Example 12, N-L-leucine borate-N′-(pyrazin-2-ylcarbamoyl)-L-leucyl-L-phenylalanine-urea]
[1]
  inhibition at 0.1 µM: 12%
  inhibition at 1 µM: 35%
  inhibition at 10 µM: 46%
MCF-7, breast cancer
  inhibition at 0.1 µM: 1.77%
  inhibition at 1 µM: 26.3%
  inhibition at 10 µM: 50.8%
A549, human lung cancer
  inhibition at 0.1 µM: 1.55%
  inhibition at 1 µM: 45.5%
  inhibition at 10 µM: 69.7%
BGC-823, liver cancer
  inhibition at 0.1 µM: 6.01%
  inhibition at 1 µM: 36.3%
  inhibition at 10 µM: 50.2%
[2]
  inhibition at 0.2 µM: -7.93%
  inhibition at 2 µM: 34.7%
  inhibition at 20 µM: 67.8%
[3]
  inhibition at 0.2 µM: 63.3%
  inhibition at 2 µM: 93.4%
  inhibition at 20 µM: 95.8%
[4]
  inhibition at 0.2 µM: 9.76%
  inhibition at 2 µM: 73.2%
  inhibition at 20 µM: 96.7%

## CC(C)C[C@H](NC(=O)[C@H](Cc1ccccc1)NC(=O)N[C@@H](Cc1ccccc1)C(=O)Nc1cnccn1)B(O)O [Example 24, N-L-phenylalanyl-L-leucine borate-N′-(pyrazin-2-ylcarbamoyl)-L-phenylalanine-urea]
[1]
  inhibition at 0.1 µM: 24.7%
  inhibition at 1 µM: 45.3%
  inhibition at 10 µM: 48.6%
MCF-7, breast cancer
  inhibition at 0.1 µM: 19.7%
  inhibition at 1 µM: 33.3%
  inhibition at 10 µM: 45.1%
A549, human lung cancer
  inhibition at 0.1 µM: 29.5%
  inhibition at 1 µM: 61.5%
  inhibition at 10 µM: 70.2%
BGC-823, liver cancer
  inhibition at 0.1 µM: 36.3%
  inhibition at 1 µM: 45.6%
  inhibition at 10 µM: 51.1%
[2]
  inhibition at 0.2 µM: -0.926%
  inhibition at 2 µM: 43.5%
  inhibition at 20 µM: 90.2%
[3]
  inhibition at 0.2 µM: 84.6%
  inhibition at 2 µM: 95.7%
  inhibition at 20 µM: 97.4%
[4]
  inhibition at 0.2 µM: -21.8%
  inhibition at 2 µM: -24.7%
  inhibition at 20 µM: -24.2%

## COc1ccc(NC(=O)[C@H](Cc2ccccc2)NC(=O)N[C@@H](CC(C)C)B(O)O)cc1 [Example 8, N-L-leucine borate-N′-(p-methoxy-phenylcarbamoyl)-L-phenylalanine-urea]
[1]
  inhibition at 0.1 µM: 12.7%
  inhibition at 1 µM: 13.4%
  inhibition at 10 µM: 32.9%
MCF-7, breast cancer
  inhibition at 0.1 µM: 4.54%
  inhibition at 1 µM: 8.51%
  inhibition at 10 µM: 16.4%
A549, human lung cancer
  inhibition at 0.1 µM: 1.01%
  inhibition at 1 µM: 8.26%
  inhibition at 10 µM: 39.2%
BGC-823, liver cancer
  inhibition at 0.1 µM: 4.74%
  inhibition at 1 µM: 5.62%
  inhibition at 10 µM: 15.6%
[2]
  inhibition at 0.2 µM: -1.39%
  inhibition at 2 µM: 9.32%
  inhibition at 20 µM: 30.6%
[3]
  inhibition at 0.2 µM: 2.87%
  inhibition at 2 µM: 59.7%
  inhibition at 20 µM: 89.4%
[4]
  inhibition at 0.2 µM: 1.62%
  inhibition at 2 µM: 7.36%
  inhibition at 20 µM: 63.1%

## CC(C)C[C@H](NC(=O)[C@H](Cc1ccccc1)NC(=O)Nc1cnccn1)B(O)O [Example 17, N-L-phenylalanyl-L-leucine borate-N′-(pyrazin-2-ylamine)-urea]
[1]
  inhibition at 0.1 µM: 12.1%
  inhibition at 1 µM: 34.6%
  inhibition at 10 µM: 51.5%
MCF-7, breast cancer
  inhibition at 0.1 µM: 8.29%
  inhibition at 1 µM: 26.2%
  inhibition at 10 µM: 37.6%
A549, human lung cancer
  inhibition at 0.1 µM: 5.46%
  inhibition at 1 µM: 40.9%
  inhibition at 10 µM: 66%
BGC-823, liver cancer
  inhibition at 0.1 µM: 7.89%
  inhibition at 1 µM: 27.1%
  inhibition at 10 µM: 52.7%
[2]
  inhibition at 0.2 µM: -3.77%
  inhibition at 2 µM: 10.5%
  inhibition at 20 µM: 57.3%
[3]
  inhibition at 0.2 µM: 10.5%
  inhibition at 2 µM: 87.3%
  inhibition at 20 µM: 95.8%
[4]
  inhibition at 0.2 µM: 3.75%
  inhibition at 2 µM: 8.57%
  inhibition at 20 µM: 94.5%

## CC(C)C[C@H](NC(=O)N[C@@H](Cc1ccccc1)C(=O)Nc1cnccn1)B(O)O [Example 6, N-L-leucine borate-N′-(pyrazin-2-ylcarbamoyl)-L-phenylalanine-urea]
[1]
  inhibition at 0.1 µM: 1.74%
  inhibition at 1 µM: 4.43%
  inhibition at 10 µM: 16.9%
MCF-7, breast cancer
  inhibition at 0.1 µM: 0.8%
  inhibition at 1 µM: 1.9%
  inhibition at 10 µM: 6.05%
A549, human lung cancer
  inhibition at 0.1 µM: -6.94%
  inhibition at 1 µM: -3.91%
  inhibition at 10 µM: 7.01%
BGC-823, liver cancer
  inhibition at 0.1 µM: 4.88%
  inhibition at 1 µM: 4.4%
  inhibition at 10 µM: 8.98%
[2]
  inhibition at 0.2 µM: -3.92%
  inhibition at 2 µM: 2.41%
  inhibition at 20 µM: 27.2%
[3]
  inhibition at 0.2 µM: -0.67%
  inhibition at 2 µM: 44.7%
  inhibition at 20 µM: 86.8%
[4]
  inhibition at 0.2 µM: 17.4%
  inhibition at 2 µM: 66.3%
  inhibition at 20 µM: 93.8%
